# According to article PMC12689914, “Identification of a novel dual-targeting peptide inhibitor of SARS-CoV-2 RBD and NRP1 through structure-based virtual screening” (Frontiers in Pharmacology, 2025):
# Non-standard residues stand in square brackets, D forms with d. Residues, ends and D or L forms follow the SMILES beside them.
# System: SARS-CoV-2 Omicron XBB.1.5 pseudovirus
# Conditions: Omicron XBB.1.5 pseudovirus, 48 h
structure (smiles),measurement,value
CC(C)C[C@H](NC(=O)[C@H](CCC(=O)O)NC(=O)[C@H](C)NC(=O)[C@@H](N)CCC(=O)O)C(=O)N[C@H](CC(=O)O)C(=O)N[C@H](C(=O)N[C@@H](CO)C(=O)N[C@@H](CC(=O)O)C(=O)N[C@@H](C)C(=O)N[C@@H](Cc1ccccc1)C(=O)N[C@@H](Cc1ccc(O)cc1)C(=O)N[C@@H](CCCNC(=N)N)C(=O)N[C@@H](Cc1ccccc1)C(=O)N[C@@H](Cc1ccccc1)C(=O)N[C@@H](CCCNC(=N)N)C(=O)N[C@@H](CCCNC(=N)N)C(=O)N[C@@H](C)C(=O)N[C@@H](CCCNC(=N)N)C(=O)O)C(C)C [Peptide-1] (H-EAEL[dD]VSDAFYRFFRRAR-OH; N-terminus and C-terminus assumed),EC50,620 ± 30 nM
